# Legend:
# Klebsiella pneumoniae = assay type: cell-based
# bacteria [1] = assay type: cell-based
# bacteria [2] = assay: Effect of cations (iron, copper) in culture medium on antibacterial activity; assay type: cell-based; details: iron added to culture medium
# Protocol: Oxygen tension effects were determined by agar diffusion in aerobic, microaerophilic (Candle jar), and anaerobic (GasPak) conditions. […] Other amounts and ratios were tested. Culture condition effects, such as pH or temperature were evaluated in broth mediums.
# Therefore, these antagonists could be used to neutralize BisBAL when necessary.
# E. coli and Salmonella = details: lag time and 18 hour turbidity only marginally affected
# [3] = tested on: V.cholerae, S.flexneri, and Y.enterocolitica
# [4] = tested on: methicillin-resistant S. aureus (MRSA); assay: Agar diffusion, zones of inhibition; assay type: cell-based, Staphylococcus aureus; details: MRSA (27 isolates); discs Bi(No3)3 157 μg, BAL 186 μg, BisBAL 157/31 μg; 24 h, 37° C.
# [5] = tested on: vancomycin-resistant enterococci (VRE); assay type: cell-based
# Helicobacter pylori = assay type: cell-based
# gut flora = assay: Effect on gut flora and fecal production; parameters: species or system rats; details: rat, in vivo
compound,measurement,setting,value
"[H]/N=C(\N/C(=N/[H])NCCCCCCNC(=N)NC(=N)Nc1ccc(Cl)cc1)Nc1ccc(Cl)cc1 [CHX, chlorhexidine]",Effect on CPS expression,Klebsiella pneumoniae; even at 0.75 of the MIC,no significant effect
"O=S(=O)(O)CC(S)CS (stereo not drawn) [DMPS, 2,3-dimercaptopropane-1-sulfonic acid]",Effect of thiol-containing chelator on antibacterial properties of bismuth,bacteria [1],do not increase its antibacterial properties
bismuth nitrate [Bi(NO3)3],Reversal of antibacterial effects by iron,bacteria [2],can be reversed by addition of micromolar amounts of iron
same,Bi^3+ concentration in whose presence bacteria grew well,E. coli and Salmonella,250 to 500 µM
same,Bi^3+ concentration bacteria could withstand,[3],up to 50 μM
same,Zones of Inhibition,[4],7.3 ± 2.8 mm
same,Concentration at which capsule and slime expression is inhibited,Klebsiella pneumoniae; subinhibitory levels,greater than 500 μM
same,Zones of Inhibition,[5],7.3 ± 1.4 mm
same,Zone diameter of inhibition,Helicobacter pylori,little or no zones of inhibition
N[C@@H](CS)C(=O)O [cysteine],Effect of thiol-containing chelator on antibacterial properties of bismuth,bacteria [1],do not increase its antibacterial properties
O=C([O-])c1ccccc1[O-].[Bi+3].[OH-] [BSS],Effect on gut flora,gut flora,does not have a significant growth-inhibiting effect
"O=C(O)[C@@H](S)[C@@H](S)C(=O)O [DMSA, dimercapto-succinic acid]",Effect of thiol-containing chelator on antibacterial properties of bismuth,bacteria [1],do not increase its antibacterial properties
